# Publication PMC11917140, “Mining the UniProtKB/Swiss‐Prot database for antimicrobial peptides” (Protein Science : A Publication of the Protein Society, 2025)
# Like-named read-outs stand apart in the source and are kept apart here. No end group written: not given here.
# Key:
# [1] = test system: porcine red blood cells (RBCs); experiment: Hemolysis assay; assay type: cell-based, pig; conditions: 1% porcine RBCs in RPMI, 37°C 30–45 min, absorbance 415 nm, tested 1–128 μg/mL, 2% Triton-X100 = 100%; three independent experiments in duplicate, one maximum and one minimum data point dropped
# Description: Hemolysis experiments were performed to evaluate the toxicity of the selected peptides to RBCs. Whole blood from healthy donor pigs was purchased from Lampire Biological Laboratories (Pipersville, PA, USA), and RBCs were washed and isolated by centrifugation using Roswell Park Memorial Institute (RPMI) medium (Life Technologies, Grand Island, NY, USA). Peptides were suspended and serially diluted from 1280 to 10 μg/mL using RPMI medium in a 96‐well polypropylene microtiter plate, and then combined with 100 μL of the 1% RBC solution, providing a final AMP testing range of 128 to 1 μg/mL. Plates were centrifuged after an incubation at 37°C for 30–45 min, and 1/2 volume from each supernatant was transferred to a new 96‐well plate. The absorbance of the wells was measured at 415 nm utilizing the Cytation 5 Cell Imaging Multimode Reader (BioTek, CA, USA), and the peptide concentration that lysed 50% of the RBCs (HC50) was used to determine the hemolytic activity. Absorbance readings from wells containing RBCs treated with 11 μL of a 2% Triton‐X100 solution or RPMI medium (AMP solvent‐only) were used to define 100% and 0% hemolysis, respectively. We note that all centrifugation steps were performed at 500× g for 5 min in an Allegra‐6R centrifuge (Beckman Coulter, CA, USA).
# [2] = test system: Staphylococcus aureus ATCC 29213; assay type: cell-based
# Description: (§1) To measure the antimicrobial activity of our selected putative AMPs in vitro, broth microdilution assays were conducted to determine the minimum inhibitory and minimum bactericidal concentrations (MICs and MBCs, respectively), as outlined by the Clinical and Laboratory Standards Institute [CLSI] ([2015]). The adaptations for testing cationic AMPs, as described previously (Wiegand et al., [2008]), were incorporated. The selected peptides were tested against laboratory isolates of E. coli 25922 and S. aureus 29213, which were purchased from the American Type Culture Collection (ATCC; Manassas, VA, USA). Bacteria from frozen stocks were streaked onto nonselective Columbia blood agar with 5% sheep blood (Oxoid) and incubated for 18–24 h at 37°C. To ensure the uniform colony health before the assay, 2–4 colonies were streaked onto a new agar plate and incubated for another 18–24 h at 37°C on the next day. To create a standardized bacterial inoculum, isolated colonies were suspended in Mueller‐Hinton Broth (MHB; Sigma‐Aldrich, St. Louis, MO, USA). The suspension was adjusted to an optical density of 0.08–0.1 at 600 nm, which corresponds to a 0.5 McFarland standard of approximately 1–2 × 10^8 colony‐forming units (CFU)/mL. The inoculum was then diluted 1:250, resulting in a final concentration of 5 ± 3 × 10^5 CFU/mL. The target bacterial density was confirmed by measuring the total viability counts from the final tested inoculum.
# (§2) The selected putative AMPs were purchased from and synthesized by GenScript (Piscataway, NJ, USA) in lyophilized format. The peptides were stored at −20°C and were suspended in sterile ultrapure water prior to testing. A two‐fold serial dilution of 1280 to 2.5 μg/mL was prepared in sterile 96‐well polypropylene microtiter plates (Greiner Bio‐One #650261, Kremsmünster, Austria). Then, 100 μL of the standardized bacterial inoculum was added to each well, resulting in a final AMP testing range of 128 to 0.25 μg/mL. The MIC values were determined as the lowest peptide concentration in which no visible bacterial growth was observed after a 20–24 h incubation at 37°C. To determine the MBC values, well contents of the MIC and the two adjacent wells containing the two‐ and four‐fold higher peptide concentrations were plated onto nonselective nutrient agar. The concentration in which 99.9% of the inoculum was killed after an incubation for 24 h at 37°C was reported as the MBC.
# (§3) In our tests, we used Ranatuerin‐4—a known AMP from the American bullfrog (Goraya et al., [1998]), and an in‐house peptide [TKPKG]3 (OT15) as the positive and negative control peptides, respectively. We note that OT15 was truncated and derived from a negative control peptide [TKPKG]4 (OT20), not antimicrobial but sharing similar characteristics to AMPs, used in previous studies (Horváti et al., [2017]).
# [3] = test system: Escherichia coli ATCC 25922; assay type: cell-based
# Description: as §1, §2, §3
# [4] = broth microdilution (CLSI, adapted for cationic AMPs), MHB, 5 ± 3 × 10^5 CFU/mL, 20–24 h at 37°C, tested 0.25–128 μg/mL, range from three independent experiments in duplicate, one maximum and one minimum data point dropped
# [5] = concentration killing 99.9% of inoculum, plated on nutrient agar, 24 h at 37°C, range from three independent experiments in duplicate, one maximum and one minimum data point dropped
sequence,measurement,setting,value
ILDKVRLWLARIRLNLLKR [PlVi1],"HC50 (concentration that lyses 50% of RBCs), porcine RBCs",[1],> 128 µg/mL
SYWWWGFHKNVIDRREAFYADLAEKKKAEN [CaGl1],"MIC, S. aureus ATCC 29213",[2]; ATCC 29213,> 128 µg/mL
same,"MBC, S. aureus ATCC 29213","[2]; ATCC 29213, 24 h",> 128 µg/mL
same,"MIC, E. coli ATCC 25922",[3]; ATCC 25922,> 128 µg/mL
same,"MBC, E. coli ATCC 25922","[3]; ATCC 25922, 24 h",> 128 µg/mL
DLWFGLKTEGELAFVKRTIFDVIYKSAKRKR [ArTh10],"MIC, S. aureus ATCC 29213",[2]; ATCC 29213,> 128 µg/mL
same,"MBC, S. aureus ATCC 29213","[2]; ATCC 29213, 24 h",> 128 µg/mL
same,"MIC, E. coli ATCC 25922",[3]; ATCC 25922,> 128 µg/mL
same,"MBC, E. coli ATCC 25922","[3]; ATCC 25922, 24 h",> 128 µg/mL
WLLVLQRGHRLASIKHVCQLSERKR [DaRe1],"MIC, S. aureus ATCC 29213",[2]; ATCC 29213,> 128 µg/mL
same,"MBC, S. aureus ATCC 29213","[2]; ATCC 29213, 24 h",> 128 µg/mL
same,"MIC, E. coli ATCC 25922",[3]; ATCC 25922,32 to 64 µg/mL
same,"MBC, E. coli ATCC 25922","[3]; ATCC 25922, 24 h",32 to 64 µg/mL
GLIKRIIRQKR [GaGa2],"MIC, S. aureus ATCC 29213",[2]; ATCC 29213,> 128 µg/mL
same,"MIC, E. coli ATCC 25922",[3]; ATCC 25922,128 µg/mL
GRGRPKGRGRGRPRGRPRGSKR [GoGo1],"MIC, S. aureus ATCC 29213",[2]; [4],> 128 µg/mL
same,"MBC, S. aureus ATCC 29213",[2]; [5],> 128 µg/mL
same,"MIC, E. coli ATCC 25922",[3]; [4],64 µg/mL
WIIQCWWRQVLEKLLAKRRR [HoSa4],"MIC, S. aureus ATCC 29213",[2]; ATCC 29213,64 to 128 µg/mL
same,"MIC, S. aureus ATCC 29213",[2]; [4],64 to 128 µg/mL
same,"MIC, E. coli ATCC 25922",[3]; [4],32 µg/mL
same,"MBC, E. coli ATCC 25922",[3]; [5],32 µg/mL
